# Experimental data published in patent US7001607B1, “Artificial tear replacement solution” (Bausch & Lomb Incorporated, priority 1999, dated 2006).
# Assay: surface tension of components
# Format: physicochemical
row,Molecule,surface tension σ
1,Fc1c(F)c(F)c2c(c1F)c(F)c(F)c1c(F)c(F)c(F)c(F)c12 [perfluorophenanthrene],19 mNm
2,CC[N+]1(CC)CC[N+](CC)(CC)CC1.O=C([O-])C(F)(F)C(F)(F)C(F)(F)C(F)(F)C(F)(F)C(F)(F)C(F)(F)F.O=C([O-])C(F)(F)C(F)(F)C(F)(F)C(F)(F)C(F)(F)C(F)(F)C(F)(F)F [tetraethylpiperazinium salt of perfluorooctanoic acid],15.9 mNm
3,perfluoroalkylethanol oxethylate,19 mNm
